Experimental data reported in patent US8637237B2, “Methods, compositions, and systems for the identification of species-specific or developmental stage-specific insecticides” (The University of North Carolina at Greensboro, priority 2003, dated 2014).

Biological target: T1, EcRA/USP (Drosophila melanogaster, UniProt P34021)
T1 construct: The plasmid encodes a version of EcRA that includes 849 amino acids, and deletes the F domain; expressed in transfected cells; host or cells: CHO
T1 sequence (P34021 1-849 isoform P34021-2): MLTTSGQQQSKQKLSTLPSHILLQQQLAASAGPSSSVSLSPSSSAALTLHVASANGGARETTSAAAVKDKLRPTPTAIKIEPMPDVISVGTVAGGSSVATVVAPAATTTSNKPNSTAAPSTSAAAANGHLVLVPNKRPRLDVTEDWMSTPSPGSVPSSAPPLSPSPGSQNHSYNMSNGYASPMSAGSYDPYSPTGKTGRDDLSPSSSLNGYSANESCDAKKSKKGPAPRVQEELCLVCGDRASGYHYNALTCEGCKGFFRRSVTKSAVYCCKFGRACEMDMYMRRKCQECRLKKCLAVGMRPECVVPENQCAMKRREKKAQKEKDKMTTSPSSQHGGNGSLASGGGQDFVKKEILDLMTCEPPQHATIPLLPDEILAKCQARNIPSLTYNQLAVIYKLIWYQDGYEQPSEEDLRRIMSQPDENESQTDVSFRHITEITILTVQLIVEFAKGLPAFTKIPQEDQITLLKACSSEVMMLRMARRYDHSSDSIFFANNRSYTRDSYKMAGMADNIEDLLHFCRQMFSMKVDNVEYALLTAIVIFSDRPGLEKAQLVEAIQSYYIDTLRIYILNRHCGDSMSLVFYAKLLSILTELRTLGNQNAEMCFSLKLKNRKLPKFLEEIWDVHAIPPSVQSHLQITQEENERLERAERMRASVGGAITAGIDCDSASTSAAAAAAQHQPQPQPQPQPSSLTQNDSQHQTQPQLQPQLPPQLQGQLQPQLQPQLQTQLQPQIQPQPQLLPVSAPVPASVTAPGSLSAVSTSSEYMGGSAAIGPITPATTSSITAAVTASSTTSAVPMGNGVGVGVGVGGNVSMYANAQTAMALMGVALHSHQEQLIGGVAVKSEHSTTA
T1 sequence (O76202 192-472 partner): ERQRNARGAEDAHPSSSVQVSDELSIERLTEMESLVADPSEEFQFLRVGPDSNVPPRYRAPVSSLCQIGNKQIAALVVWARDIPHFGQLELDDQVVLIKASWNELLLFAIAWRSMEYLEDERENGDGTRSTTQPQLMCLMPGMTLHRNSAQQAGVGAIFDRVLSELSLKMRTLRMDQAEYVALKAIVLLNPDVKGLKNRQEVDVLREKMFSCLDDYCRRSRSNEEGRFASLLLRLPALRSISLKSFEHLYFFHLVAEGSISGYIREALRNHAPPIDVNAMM
Experiment: EcRA isoform with USP (VP16CfUSP), (EcRE)5-ΔMTV-LUC in CHO cells
Format: cell-based
Method: These experiments employed a mammalian cell culture system using Chinese hamster ovary cells (CHO) to evaluate the transcriptional function of Drosophila melanogaster EcR and USP using methods described previously (U.S. Patent Application Publication No: 2005/0049230; Henrich et al, 2003). Cells were seeded in 6-well polypropylene culture plates (Falcon) with 10^5 cells per well on the day prior to transfection. Transfection was subsequently performed using either calcium phosphate (Kitareewan et al., 1996, Mol. Biol. Cell, 7:1153-1196) or a GenePorter reagent (Gene Therapy Systems, Inc; San Diego, Calif.) following manufacturer's protocols. Each well received 1.25 μg of (EcRE)5-ΔMTV-CAT (five copies of the hsp27 EcRE inserted into an mouse mammary tumor virus (MTV) promoter upstream of the chloramphenicol acetyltransferase (CAT) gene) or (EcRE)5-ΔMTV-LUC (the same promoter attached to firefly luciferase), 1.25 μg of pCH111 (SV40 early promoter linked to the β-galactosidase gene) to normalize CAT activity, and 0.25 μg of each expression plasmid (EcR, FXR, RXR, USP) that was tested. The cells were incubated with plasmid DNA for seven hours and then washed with 1×PBS. Muristerone A (murA; Alexis Biochemicals) or 20-hydroxyecdysone (20E; Sigma) dissolved in ethanol to a concentration of 10 mM was diluted as necessary to the final assay concentration (FAC) in 2 ml of fresh incubation medium that was then applied to the cells. Similarly, JHIII (Sigma) was dissolved in dimethyl sulfoxide (DMSO) to a concentration of […] and diluted into the incubation medium to its final assay concentration (20, 40, 80, 160 μM). […] A corresponding volume of ethanol and DMSO were added to control cells for all experiments. For all experiments, the cells were allowed to incubate with the medium for 24 hours before collection and cell lysates were prepared by described methods (Kitareewan et al., 1996). Both β-galactosidase and CAT reporter activity were measured based on previously used methods (Kitareewan et al, 1996). Luciferase assays using luciferrin followed the specifications of the manufacturer.
Transcriptional activity, measured as ^14C-chloramphenicol counts (for measuring CAT activity) or relative luciferase activity (RLU) was quantified for each cell lysate. The counts were then normalized by adjusting for differences in β-galactosidase activity, since β-galactosidase expression is controlled by a constitutive promoter and provides an estimate of cell mass. Data were normalized as fold-induction based on differences in reporter gene activity between hormonally treated and control cells.

CC(C)(O)CC[C@@H](O)[C@](C)(O)[C@H]1CC[C@@]2(O)C3=CC(=O)[C@@H]4C[C@@H](O)[C@@H](O)C[C@]4(C)[C@H]3CC[C@]12C [20E, 20-hydroxyecdysone]
transcriptional response to 20E (EcRA + VP16CfUSP, 10 μM 20E): consistent and discernible transcriptional response | 20E (inducibility) (EcRA/USP, 10 μM 20E): + ((+) designates a change in transcriptional level that exceeds 2.5-fold)

COC(=O)/C=C(\C)CC/C=C(\C)CC[C@H]1OC1(C)C [JHIII, juvenile hormone III]
potentiation of murA response by JHIII (EcRA + VP16CfUSP, 80 μM JHIII with 0.1 μM murA): potentiated | MurA + JHIII (JHIII potentiation) (EcRA/USP, 0.1 μM murA + 80 μM JHIII): + ((+) indicates observed potentiation that exceeds 2-fold above the levels observed with ecdysteroid alone)

CC(C)CC[C@@H](O)[C@](C)(O)[C@H]1CC[C@@]2(O)C3=CC(=O)[C@]4(O)C[C@@H](O)[C@@H](O)C[C@]4(C)[C@H]3[C@H](O)C[C@]12C [murA, muristerone A]
induction by murA (EcRA + VP16CfUSP, 1 μM murA): 30-40 fold | MurA (inducibility) (EcRA/USP, 0.1 μM murA): + ((+) designates a change in transcriptional level that exceeds 2.5-fold)
